Data published in PMC4686872 (European journal of medicinal chemistry, 2015).
Converted amounts (≈) assume the structure as drawn. Like-named read-outs stand apart in the source and are kept apart here. Each block holds one compound with its values, some of them ahead of it.

Legend:
[1] = system: MRSA; assay: Broth microdilution MIC against MRSA, summarised over the strains tested; type: cell-based, Staphylococcus aureus; conditions: for antimicrobial activity against MRSA (in words): strains as named in the sentence; for MIC: Staphylococcus aureus, MRSA, read-out: MIC against MRSA
[2] = system: murine macrophage (J774) cell line; assay: MTS cytotoxicity assay
[3] = Kinetic solubility screen in PBS; type: physicochemical
[4] = system: Caco-2 bilayer; assay: Caco-2 permeability assay
[5] = system: VRSA (VRS2); assay: Broth microdilution MIC, VRSA VRS2; type: cell-based, Staphylococcus aureus; conditions: vancomycin-resistant S. aureus VRS2
[6] = system: MRSA USA300; assay: Minimum bactericidal concentration
[7] = system: Caco-2 bilayer
[8] = in vitro; conditions: human, Caco-2
[9] = 128 µM (data not presented), all toxic, exception = not toxic
[10] = 64 µM / up to a concentration of 64 µM

SMILES: [C-]#[N+]c1ccccc1C=C1CCCCC1 [Compound 26]
antimicrobial activity against MRSA (in words) [1]: inactive against several MRSA isolates

SMILES: [C-]#[N+]c1ccc(/C=C/c2ccccc2)cc1 [Compound 37]
toxicity to J774 cells [2, 9]: exception

SMILES: [C-]#[N+]c1ccc(C)cc1-c1ccc(C(C)(C)C)cc1 [Compound 49]
antimicrobial activity against MRSA (in words) [1]: loss in antimicrobial activity

SMILES: N#Cc1ccccc1/C=C/c1ccccc1 [Compound 43]
antimicrobial activity against MRSA (in words) [1]: complete loss of antimicrobial activity

SMILES: [C-]#[N+]c1ccccc1/C=C/c1cccc(OC)c1 [Compound 15]
toxicity to J774 cells [2, 9]: exception

SMILES: [C-]#[N+]c1ccccc1CCc1ccccc1 [Compound 53]
antimicrobial activity against MRSA (in words) [1]: active against several strains

SMILES: [C-]#[N+]c1ccccc1-c1ccccc1 [Compound 46]
antimicrobial activity against MRSA (in words) [1]: lacks activity against three strains of MRSA

SMILES: [C-]#[N+]c1ccccc1/C=C/c1cccnc1 [Compound 30]
antimicrobial activity against MRSA (in words) [1]: reduced antimicrobial activities
toxicity to J774 cells [2, 9]: exception

MIC [1]: 4 to 64 µM (≈ 0.877 to 14 µg/mL)
SMILES: [C-]#[N+]c1ccccc1/C=C/c1ccc(C)cc1 [Compound 23]
antimicrobial activity against MRSA (in words) [1]: active against all MRSA strains tested

MIC [1]: ≥ 2 µM
reduction in the MIC against MRSA ([1]; relative to compound 1 (removal of the ethyl group)): two-to-eight fold
Solubility Analysis [3]: Low solubility
Permeability Analysis [4]: Not permeable
SMILES: [C-]#[N+]c1ccccc1/C=C/c1ccccc1 [Compound 13]
toxicity to J774 cells [2, 10]: neither compound was toxic

SMILES: [C-]#[N+]c1ccc(C)cc1-c1ccc(C(F)(F)F)cc1 [Compound 50]
antimicrobial activity against MRSA (in words) [1]: loss in antimicrobial activity

SMILES: [C-]#[N+]c1ccccc1CP(=O)(OCC)OCC [Compound 4a]
Minimum inhibitory concentration (MIC), VRSA2 VRS 2 [5]: >128 µM
antimicrobial activity against MRSA (in words) [1]: complete loss of activity

MIC [1]: 8 to 64 µM (≈ 1.87 to 14.9 µg/mL)
SMILES: [C-]#[N+]c1ccccc1/C=C(\CC)c1ccccc1 [Compound 1]
bacteriostatic or bactericidal [6]: bacteriostatic

SMILES: COC(=O)[C@H]1[C@H]2C[C@@H]3c4[nH]c5cc(OC)ccc5c4CCN3C[C@H]2C[C@@H](OC(=O)c2cc(OC)c(OC)c(OC)c2)[C@@H]1OC [Reserpine, reference compound]
Solubility Analysis [3]: Low solubility

SMILES: [C-]#[N+]c1ccccc1/C=C/c1cccc(F)c1 [Compound 19]
toxicity to J774 cells [2, 10]: toxic

Permeability Analysis [7]: Low permeability
Papp A→B [8]: 0.23 ×10⁻⁶ cm/s
SMILES: CNC(=C[N+](=O)[O-])NCCSCc1ccc(CN(C)C)o1 [Ranitidine]

SMILES: [C-]#[N+]c1ccccc1/C=C/c1ccc([N+](=O)[O-])cc1 [Compound 25]
toxicity to J774 cells ([2]; 32 µM, all not toxic, exception = toxic): exception
toxicity to J774 cells [2, 10]: toxic

SMILES: CC/C(=C\c1ccccc1)c1ccccc1 [Compound 42]
antimicrobial activity against MRSA (in words) [1]: complete loss in the anti-MRSA activity

SMILES: [C-]#[N+]c1ccccc1/C=C/c1ccncc1 [Compound 33]
antimicrobial activity against MRSA (in words) [1]: reduced antimicrobial activities

SMILES: [C-]#[N+]c1ccccc1/C=C/c1ccc(CCCC)cc1 [Compound 24]
antimicrobial activity against MRSA (in words) [1]: lacked activity against most MRSA strains tested

SMILES: [C-]#[N+]c1ccccc1/C=C(\CC)c1ccc(OC)cc1 [Compound 11]
toxicity to J774 cells [2, 10]: toxic

SMILES: [C-]#[N+]c1ccccc1/C=C/c1ccccn1 [Compound 27]
antimicrobial activity against MRSA (in words) [1]: reduced antimicrobial activities

SMILES: [C-]#[N+]c1ccccc1/C=C(\CC)c1cccc(C(F)(F)F)c1 [Compound 12]
toxicity to J774 cells [2, 10]: toxic
